US9198425B2, “Herbicidally-effective sulfinyl aminobenzamides” (BAYER INTELLECTUAL PROPERTY GMBH, priority 2012, dated 2015)

Experiments:
Test in all cases: Pre-emergence herbicidal action
Format in all cases: in vivo
Avena fatua = settings: Table C, dosage 320 g/ha
Excerpt: (§1) Seeds of monocotyledonous and dicotyledonous weed plants and crop plants are placed in wood-fiber pots in sandy loam and covered with soil. The inventive compounds formulated in the form of wettable powders (WP) or as emulsion concentrates (EC) are then applied to the surface of the covering soil as an aqueous suspension or emulsion at a water application rate of 600 to 800 l/ha (converted) with addition of 0.2% wetting agent. After the treatment, the pots are placed in a greenhouse and kept under good growth conditions for the test plants. The damage to the test plants is assessed visually after a test period of 3 weeks by comparison with untreated controls (herbicidal activity in percent (%): 100% action=the plants have died, 0% action=like control plants). For example, compounds No. 6-102, 6-014 and 6-058 at an application rate of 320 g/ha each show at least 80% efficacy against Abutilon theophrasti, Amaranthus retroflexus and Matricaria inodora.
(§2) In accordance with the conditions specified for pre-emergence testing of herbicidal efficacy against harmful plants, comparative tests were conducted between inventive compounds and compounds known from WO 2011035874 A1.

Pharbitis purpureum = settings: dosage 320 g/ha
Excerpt: as §1, §2

Matricaria inodora = settings: dosage 320 g/ha
Excerpt: as §1, §2

Stellaria media = settings: dosage 320 g/ha
Excerpt: as §1, §2

Amaranthus retroflexus = settings: dosage 320 g/ha
Excerpt: as §1, §2

Abutilon theophrasti = settings: dosage 320 g/ha
Excerpt: as §1, §2

Veronica persica = settings: Table A, dosage 320 g/ha
Excerpt: as §1, §2

Row | SMILES | Herbicidal efficacy against AVEFA (Avena fatua) [%] | Herbicidal efficacy against PHBPU (Pharbitis purpureum; Table C) [%] | Herbicidal efficacy against MATIN (Matricaria inodora; Table C) [%] | Herbicidal efficacy against STEME (Stellaria media; Table C) [%] | Herbicidal efficacy against AMARE (Amaranthus retroflexus; Table B) [%] | Herbicidal efficacy against ABUTH (Abutilon theophrasti; Table B) [%] | Herbicidal efficacy against MATIN (Matricaria inodora; Table B) [%] | Herbicidal efficacy against STEME (Stellaria media; Table B) [%] | Herbicidal efficacy against AMARE (Amaranthus retroflexus; Table A) [%] | Herbicidal efficacy against VERPE (Veronica persica) [%] | Herbicidal efficacy against ABUTH (Abutilon theophrasti; Table A) [%] | Herbicidal efficacy against PHBPU (Pharbitis purpureum; Table A) [%] | Herbicidal efficacy against MATIN (Matricaria inodora; Table A) [%]
1 | Cc1nonc1NC(=O)c1ccc(Cl)c(N(C)C)c1Cl [drawing 43] | 0 | 10 | 0 | 0 | – | – | – | – | – | – | – | – | –
2 | Cc1nonc1NC(=O)c1ccc(Cl)c(N(C)C)c1Cl [drawing 41] | – | – | – | – | 30 | 0 | 0 | 0 | – | – | – | – | –
3 | Cc1nonc1NC(=O)c1ccc(Cl)c(N=S2(=O)CCOCC2)c1Cl | 70 | 100 | 100 | 90 | – | – | – | – | – | – | – | – | –
4 | Cc1nonc1NC(=O)c1ccc(Cl)c(N(C)C)c1Cl [drawing 39] | – | – | – | – | – | – | – | – | 30 | 40 | 0 | 10 | 0
5 | CCS(=O)(CC)=Nc1c(Cl)ccc(C(=O)Nc2nonc2C)c1Cl | – | – | – | – | – | – | – | – | 90 | 90 | 80 | 80 | 90
6 | Cc1nonc1NC(=O)c1ccc(Cl)c(N=S2(=O)CCCCC2)c1Cl | – | – | – | – | 60 | 90 | 90 | 70 | – | – | – | – | –
